Assay results: ChEMBL document CHEMBL1201862, “PubChem BioAssay data set” (2004)
Calls of active or inactive are those of the source.

Experiments:
HeLa = test: ATP-based viability loss in HeLa cells – cell-based, CellTiter-Glo luminescence, cherry-pick samples, cytotoxicity control for MITF activator project, dose response (AID 540259); type: functional; conditions: Homo sapiens
[1] = molecular target: Luciferin 4-monooxygenase (Photinus pyralis, UniProt P08659); test: inhibition of purified Photinus pyralis luciferase – biochemical, luminescence, dose response (AID 1891)
[2] = Luminescence Cell-Based Dose Confirmation HTS to Identify Inhibitors of Platelet Dense Granule Release. [Related pubchem assays: 1663 (Primary HTS), 1678 (Summary of Project)]; type: functional
Keap1/Nrf2 = Keap1/Nrf2 (Homo sapiens, UniProt Q14145); test: disruptors of Keap1 binding to Nrf2 peptide – biochemical, fluorescence polarization, cherry-picked samples, dose response (AID 588683)
[3] = molecular target: 26S proteasome non-ATPase regulatory subunit 14 (Homo sapiens, UniProt O00487); test: inhibition of proteasome subunit RPN11 – biochemical, fluorescence polarization, uHTS hits, confirmation (AID 602368); type: functional
[4] = molecular target: 72 kDa type IV collagenase (Homo sapiens, UniProt P08253); test: Dose Response validation of uHTS RPN11 inhibitor hits using a MMP-2 Fluorescence assay.; type: functional
Prothrombin = Prothrombin (Bos taurus, UniProt P00735); test: thrombin protease inhibitors – biochemical, fluorescence polarization, uHTS hits, dose response (AID 602369); type: functional
[5] = molecular target: T1, Histone-lysine N-methyltransferase NSD2 (Homo sapiens, UniProt O96028); type: biochemical
T1 sequence (O96028 whole entry): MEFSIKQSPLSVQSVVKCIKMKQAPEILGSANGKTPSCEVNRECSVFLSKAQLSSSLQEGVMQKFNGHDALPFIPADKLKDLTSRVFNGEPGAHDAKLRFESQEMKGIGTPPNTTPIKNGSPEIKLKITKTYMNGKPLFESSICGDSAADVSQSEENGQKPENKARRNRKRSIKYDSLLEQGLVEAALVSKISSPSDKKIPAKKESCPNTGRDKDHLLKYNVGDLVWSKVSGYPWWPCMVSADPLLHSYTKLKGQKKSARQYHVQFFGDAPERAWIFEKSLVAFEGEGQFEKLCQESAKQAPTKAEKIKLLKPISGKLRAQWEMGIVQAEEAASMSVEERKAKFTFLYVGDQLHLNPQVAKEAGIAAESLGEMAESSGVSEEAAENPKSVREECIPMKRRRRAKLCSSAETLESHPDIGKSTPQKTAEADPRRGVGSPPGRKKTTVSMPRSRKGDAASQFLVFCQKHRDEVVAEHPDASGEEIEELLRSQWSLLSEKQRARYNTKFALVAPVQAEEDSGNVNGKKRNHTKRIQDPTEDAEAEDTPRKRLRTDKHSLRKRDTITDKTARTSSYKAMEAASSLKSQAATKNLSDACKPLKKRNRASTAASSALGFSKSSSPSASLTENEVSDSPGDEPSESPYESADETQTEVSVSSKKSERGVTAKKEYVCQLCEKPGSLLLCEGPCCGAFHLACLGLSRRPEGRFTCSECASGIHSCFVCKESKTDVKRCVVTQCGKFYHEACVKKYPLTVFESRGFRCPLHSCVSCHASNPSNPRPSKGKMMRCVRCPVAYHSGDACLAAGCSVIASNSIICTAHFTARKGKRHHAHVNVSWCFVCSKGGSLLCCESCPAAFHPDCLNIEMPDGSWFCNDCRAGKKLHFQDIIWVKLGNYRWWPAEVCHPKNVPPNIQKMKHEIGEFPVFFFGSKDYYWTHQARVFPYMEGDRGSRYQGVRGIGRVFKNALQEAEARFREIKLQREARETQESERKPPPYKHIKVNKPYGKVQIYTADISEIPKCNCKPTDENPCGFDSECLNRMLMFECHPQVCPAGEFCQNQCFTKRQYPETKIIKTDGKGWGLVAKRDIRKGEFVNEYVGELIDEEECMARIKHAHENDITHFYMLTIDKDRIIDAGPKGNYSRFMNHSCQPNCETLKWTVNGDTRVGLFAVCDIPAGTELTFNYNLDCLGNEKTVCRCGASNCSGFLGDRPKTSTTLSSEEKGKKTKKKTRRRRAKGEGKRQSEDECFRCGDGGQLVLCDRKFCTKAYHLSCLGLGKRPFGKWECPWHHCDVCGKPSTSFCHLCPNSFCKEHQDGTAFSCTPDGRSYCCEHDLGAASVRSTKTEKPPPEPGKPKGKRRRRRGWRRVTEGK

Sequence of Luciferin 4-monooxygenase (P08659 whole entry): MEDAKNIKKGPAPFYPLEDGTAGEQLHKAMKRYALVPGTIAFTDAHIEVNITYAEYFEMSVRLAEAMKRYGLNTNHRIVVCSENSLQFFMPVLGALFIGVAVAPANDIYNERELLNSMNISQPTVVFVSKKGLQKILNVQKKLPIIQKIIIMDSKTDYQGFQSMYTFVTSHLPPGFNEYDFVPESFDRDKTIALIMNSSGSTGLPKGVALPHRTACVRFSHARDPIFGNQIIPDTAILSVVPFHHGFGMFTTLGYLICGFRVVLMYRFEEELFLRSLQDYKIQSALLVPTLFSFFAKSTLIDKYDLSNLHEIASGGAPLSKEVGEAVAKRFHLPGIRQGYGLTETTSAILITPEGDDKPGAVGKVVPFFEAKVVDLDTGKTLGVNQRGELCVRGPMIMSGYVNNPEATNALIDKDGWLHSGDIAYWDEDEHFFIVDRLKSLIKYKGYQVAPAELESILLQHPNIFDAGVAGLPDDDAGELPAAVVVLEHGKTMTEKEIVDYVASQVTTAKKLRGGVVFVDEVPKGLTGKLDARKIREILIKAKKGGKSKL
Sequence of 26S proteasome non-ATPase regulatory subunit 14 (O00487 whole entry): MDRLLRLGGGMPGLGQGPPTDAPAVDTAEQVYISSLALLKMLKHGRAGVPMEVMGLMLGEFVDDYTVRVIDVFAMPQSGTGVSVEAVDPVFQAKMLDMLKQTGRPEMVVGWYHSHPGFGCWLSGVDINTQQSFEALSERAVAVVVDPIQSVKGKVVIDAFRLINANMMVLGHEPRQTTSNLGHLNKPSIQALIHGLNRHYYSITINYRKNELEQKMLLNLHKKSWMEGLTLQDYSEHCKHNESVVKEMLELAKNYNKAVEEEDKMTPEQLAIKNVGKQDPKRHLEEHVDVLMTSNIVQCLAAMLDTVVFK
Sequence of 72 kDa type IV collagenase (P08253 whole entry): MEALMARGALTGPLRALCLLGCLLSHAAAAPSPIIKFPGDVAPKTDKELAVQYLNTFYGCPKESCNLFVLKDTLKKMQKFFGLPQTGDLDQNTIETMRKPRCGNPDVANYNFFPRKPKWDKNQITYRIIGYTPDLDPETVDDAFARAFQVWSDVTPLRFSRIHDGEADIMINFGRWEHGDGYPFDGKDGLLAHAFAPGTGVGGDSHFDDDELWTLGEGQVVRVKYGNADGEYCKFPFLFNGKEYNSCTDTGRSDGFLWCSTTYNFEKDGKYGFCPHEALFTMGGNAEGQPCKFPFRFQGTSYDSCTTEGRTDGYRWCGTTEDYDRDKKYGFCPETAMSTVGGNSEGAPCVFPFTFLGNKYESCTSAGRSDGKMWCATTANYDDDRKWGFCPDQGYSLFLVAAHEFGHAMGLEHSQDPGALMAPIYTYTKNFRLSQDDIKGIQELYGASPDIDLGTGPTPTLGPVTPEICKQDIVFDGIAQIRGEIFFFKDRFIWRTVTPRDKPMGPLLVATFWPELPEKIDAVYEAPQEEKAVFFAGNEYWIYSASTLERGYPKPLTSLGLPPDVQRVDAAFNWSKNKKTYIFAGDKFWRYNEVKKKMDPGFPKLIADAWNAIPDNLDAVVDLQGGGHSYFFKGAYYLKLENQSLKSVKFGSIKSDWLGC
Sequence of Keap1/Nrf2 (Q16236 whole entry): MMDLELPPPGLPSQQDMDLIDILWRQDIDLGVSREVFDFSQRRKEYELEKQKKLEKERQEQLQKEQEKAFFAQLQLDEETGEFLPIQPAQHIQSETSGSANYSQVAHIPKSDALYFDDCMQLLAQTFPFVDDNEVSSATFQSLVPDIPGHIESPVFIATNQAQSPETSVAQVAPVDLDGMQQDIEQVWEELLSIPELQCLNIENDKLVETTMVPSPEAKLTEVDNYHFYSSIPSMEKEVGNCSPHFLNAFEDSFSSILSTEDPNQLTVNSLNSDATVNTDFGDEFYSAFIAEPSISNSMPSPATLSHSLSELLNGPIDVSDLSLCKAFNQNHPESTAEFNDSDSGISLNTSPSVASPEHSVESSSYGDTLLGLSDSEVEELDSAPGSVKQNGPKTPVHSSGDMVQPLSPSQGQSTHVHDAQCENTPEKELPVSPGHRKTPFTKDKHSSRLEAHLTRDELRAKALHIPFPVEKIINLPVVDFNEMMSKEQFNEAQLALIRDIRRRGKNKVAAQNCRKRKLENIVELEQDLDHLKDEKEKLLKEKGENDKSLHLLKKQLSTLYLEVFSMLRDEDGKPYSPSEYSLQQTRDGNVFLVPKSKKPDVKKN
Sequence of Keap1/Nrf2 (Q14145 whole entry): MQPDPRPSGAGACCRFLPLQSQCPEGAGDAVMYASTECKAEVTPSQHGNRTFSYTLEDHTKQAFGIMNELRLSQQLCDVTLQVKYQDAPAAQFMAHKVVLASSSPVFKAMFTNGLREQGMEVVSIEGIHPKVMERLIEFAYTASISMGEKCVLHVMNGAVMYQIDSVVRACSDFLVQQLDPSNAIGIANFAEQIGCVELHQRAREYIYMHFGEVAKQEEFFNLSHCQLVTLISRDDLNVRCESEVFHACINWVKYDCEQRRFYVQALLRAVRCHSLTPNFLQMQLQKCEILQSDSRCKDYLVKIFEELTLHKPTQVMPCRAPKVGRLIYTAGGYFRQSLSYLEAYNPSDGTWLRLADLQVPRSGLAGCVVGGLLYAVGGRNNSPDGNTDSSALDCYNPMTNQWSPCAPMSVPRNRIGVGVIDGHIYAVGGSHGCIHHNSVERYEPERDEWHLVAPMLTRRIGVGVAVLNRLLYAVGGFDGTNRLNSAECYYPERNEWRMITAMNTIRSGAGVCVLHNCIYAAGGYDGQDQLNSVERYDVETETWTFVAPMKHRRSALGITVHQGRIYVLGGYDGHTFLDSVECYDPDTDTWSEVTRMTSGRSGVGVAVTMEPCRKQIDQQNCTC

## CC1(C)CC(=O)c2c(O)cc(OCc3ccc(Br)cc3)cc2O1
HeLa
  AC50: 70.4 µM (active)

## CSc1nc(N)n2nc(-c3ccc(Cl)cc3)cc2n1
[1]
  EC50: 0.464 µM (active)
[2]
  EC50: 3.88 µM (active)
HeLa
  AC50: 71.6 µM (active)

## C/C(C/C(C)=C1/SC(=S)NC1=O)=C1\SC(=S)NC1=O
Keap1/Nrf2
  AC50: > 52 µM (inactive)
[3]
  IC50: 43.6 µM (active)
[4]
  IC50: 0.302 µM (active)
Prothrombin
  IC50: 87.5 µM (active)
[5]
  AC50: 7.93 µM (active)
